Results: PMC12169679 (Journal of Medicinal Chemistry, 2025)

How the values were obtained:
[1] = test system: wild-type EBOV (Orthoebolavirus zairense, Mayinga variant); conditions: for EC50: read-out: EC50 (EBOV)
[2] = PAMPA
[3] = test system: EBOV-GP-pseudotype virus (pEBOV); conditions: cited from earlier work
VeroE6 cells = conditions: cited from earlier work
[4] = test system: EBOV-GP-pseudotype virus (pEBOV)
in vitro [5] = conditions: for CC50: African green monkey; for CC50 at 24 h: chlorocebus sabaeus
[6] = test system: EBOV-GP-pseudotype virus (pEBOV); test: microbe, parasite or virus in culture; conditions: Zaire ebolavirus; for inhibition at 10 µM: Vero C1008, read-out: %inh@10 μM (pEBOV); for EC50: Vero C1008, read-out: EC50 (pEBOV)
[7] = test system: VSV-G-pseudotype virus (pVSV-G); test: microbe, parasite or virus in culture; format: cell-based; conditions: Vesicular stomatitis virus; read-out: %inh@10µM (pVSV-G)
[8] = pH 7.4
[9] = CD-1, mouse, pH 7.4
in vitro [10] = conditions: human, microsomes, pH 7.4
in vitro [11] = conditions: CD-1, mouse, microsomes, pH 7.4
in vitro [12] = conditions: PAMPA, pH 7.4
A549 cells = conditions: cited from earlier work
EBOV-GP protein = EBOV-GP protein (Zaire ebolavirus, UniProt Q05320); format: binding, Ebola virus
[13] = molecular target: EBOV-GPcl/NPC1-domain C interaction (Zaire ebolavirus, UniProt Q05320); format: binding; conditions: 50 μM

In the case of `O=C(CN1CCCC1)NNc1ccccc1Sc1cc(Cl)ccc1[N+](=O)[O-]` [SC073], the “SI (CC50/EC50), replicative EBOV” value [1] is reported as 18.6, the EC50 [1] is reported as 4.3 µM and the “prediction of CNS penetration” value [2] is reported as “SNC +”. For the same compound, the “SI (CC50/EC50) of the hits, pEBOV” value [3] was 27.5 and the CC50 (VeroE6 cells) was 80 µM.

For `O=C(CNCc1ccccc1)Nc1ccccc1Sc1cc(Cl)ccc1[N+](=O)[O-]` [compound 10, 2-(Benzylamine)-N-(2-((5-chloro-2-nitrophenyl)thio)phenyl)acetamide], the “antiviral activity against pEBOV, in words” value (“antiviral activity” for short) [4] was “no activity”, the CC50 (in vitro [5]) was over 200 µM and the inhibition at 10 µM [6] was 18%.

With `O=C(CCNCCc1ccccc1)Nc1ccccc1Nc1cc(Cl)ccc1[N+](=O)[O-]` [compound 19, N-(2-((5-Chloro-2-nitrophenyl)amino)phenyl)-3-(phenethylamino)propanamide] the “antiviral activity” value [4] was “inactive”, the CC50 at 24 h (in vitro [5]) was 15 µM and the inhibition at 10 µM [6] was 15%.

In the case of `O=C(CCN1CCCC1)Nc1ccccc1Nc1cc(Cl)ccc1[N+](=O)[O-]` [compound 17, N-(2-((5-Chloro-2-nitrophenyl)amino)phenyl)-3-(pyrrolidin-1-yl)propanamide], the inhibition at 10 µM [7] is reported as -133%, the “SI (pEBOV) (CC50/EC50)” value [4] is reported as 27.9 and the “SI (CC50/EC50), replicative EBOV” value [1] is reported as 38.5. For the same compound, the EC50 [1] was 6.48 µM, the “metabolic stability in human liver microsomes CLint” value [8] was 4.19 ± 0.02 mL/min/mg protein and the “increase in metabolic stability in human microsomes” value (shortened to “increase in metabolic stability”) [8] was 195%. For the same compound, the “metabolic stability in mouse liver microsomes CLint” value [9] was 130 ± 17 mL/min/mg protein, the “prediction of CNS penetration” value [2] was “SNC +” and the CC50 at 24 h (in vitro [5]) was 250 µM. For the same compound, the half-life at 10 µM (in vitro [10]) was 136.2 ± 0.5 min, the half-life at 10 µM (in vitro [11]) was 20 ± 3 min and the EC50 [6] was 8.94 µM.

In the case of `CN(C)CCCN1c2ccccc2Sc2ccccc21` [Promazine, reference compound], the “prediction of CNS penetration” value [2] is reported as “CNS+” and the Papp (in vitro [12]) is reported as 9.1 ± 1.3 ×10⁻⁶ cm/s.

In the case of `Cn1c(=O)c2c(ncn2C)n(C)c1=O` [Caffeine, reference compound], the “prediction of CNS penetration” value [2] is reported as “CNS−” and the Papp (in vitro [12]) is reported as 1.5 ± 0.3 ×10⁻⁶ cm/s.

For `CCN(CC)CC(=O)NNc1ccccc1Sc1cc(Cl)ccc1[N+](=O)[O-]` [SC198], the “SI (CC50/EC50), replicative EBOV” value [1] was 8.3, the EC50 [1] was 6 µM and the “prediction of CNS penetration” value [2] was “SNC +”. The “SI (CC50/EC50) of the hits, pEBOV” value [3] was 12.4 and the CC50 (VeroE6 cells) was 50 µM.

In the case of `CN(C)CCOc1ccc(/C(=C(/CCCl)c2ccccc2)c2ccccc2)cc1` [Toremifene, reference compound], the “SI (pEBOV) (CC50/EC50)” value [4] is given as “d Toremifene was used as the reference of the assay EC50 = 0.17 μM (95% CI = 0.15–0.54 μM), CC50 (VeroE6 cells) = 10 μM, SI = 58.8 (lit^25: EC50 = 0.07 ± 0.05 μM, CC50 (A549 cells) = 16 μM, SI = 229)”, the CC50 (in vitro [5]) is given as 10 µM and the CC50 (A549 cells) is given as 16 µM. The EC50 [6] was 0.17 µM.

With `O=C(CCNCCC1CCN(Cc2ccccc2)CC1)Nc1ccccc1Sc1cc(Cl)ccc1[N+](=O)[O-]` [compound 15, 3-((2-(1-Benzylpiperidin-4-yl)ethyl)amino)-N-(2-((5-chloro-2-nitrophenyl)thio)phenyl)propanamide] the “antiviral activity” value [4] was “no activity”, the CC50 at 24 h (in vitro [5]) was 9 µM and the inhibition at 10 µM [6] was under 75%.

For `O=C(CN1CCCCC1)Nc1ccccc1Sc1cc(Cl)ccc1[N+](=O)[O-]` [compound 9, N-(2-((5-Chloro-2-nitrophenyl)thio)phenyl)-2-(piperidin-1-yl)acetamide], the “antiviral activity” value [4] was “no activity”, the CC50 (in vitro [5]) was over 200 µM and the inhibition at 10 µM [6] was -10%.

In the case of `CCN(CC)CC(=O)Nc1ccccc1Sc1cc(Cl)ccc1[N+](=O)[O-]` [compound 8, N-(2-((5-Chloro-2-nitrophenyl)thio)phenyl)-2-(diethylamino)acetamide], the “antiviral activity” value [4] is reported as “inactive”, the CC50 (in vitro [5]) is reported as over 200 µM and the inhibition at 10 µM [6] is reported as -5%.

With `O=C(CNCCC1CCN(Cc2ccccc2)CC1)Nc1ccccc1Sc1cc(Cl)ccc1[N+](=O)[O-]` [compound 11, 2-((2-(1-Benzylpiperidin-4-yl)ethyl)amino)-N-(2-((5-chloro-2-nitrophenyl)thio)phenyl)acetamide] the inhibition at 10 µM [7] was 38%, the “SI (pEBOV) (CC50/EC50)” value [4] was 26.7 and the “SI (CC50/EC50), replicative EBOV” value [1] was 28.8. The EC50 [1] was 5.2 µM, the “metabolic stability in human liver microsomes CLint” value [8] was 25 ± 4 mL/min/mg protein and the “metabolic stability in mouse liver microsomes CLint” value [9] was 390 ± 70 mL/min/mg protein. For the same compound, the “prediction of CNS penetration” value [2] was “SNC +”, the CC50 at 24 h (in vitro [5]) was 150 µM and the half-life at 10 µM (in vitro [10]) was 23 ± 4 min. For the same compound, the half-life at 10 µM (in vitro [11]) was 6 ± 1 min and the EC50 [6] was 5.61 µM.

For `NC(=O)c1nc(F)c[nH]c1=O` [Favipiravir, reference compound], the CC50 (VeroE6 cells) is listed as over 1000 µM.

With `CCN(CC)CCC(=O)Nc1ccccc1Sc1cc(Cl)ccc1[N+](=O)[O-]` [compound 13, N-(2-((5-Chloro-2-nitrophenyl)thio)phenyl)-3-(diethylamino)propanamide] the inhibition at 10 µM [7] was -5%, the “SI (pEBOV) (CC50/EC50)” value [4] was 16.9 and the “SI (CC50/EC50), replicative EBOV” value [1] was 3.3. The EC50 [1] was 44.5 µM, the “metabolic stability in human liver microsomes CLint” value [8] was 36 ± 8 mL/min/mg protein and the “metabolic stability in mouse liver microsomes CLint” value [9] was 390 ± 60 mL/min/mg protein. The “prediction of CNS penetration” value [2] was “SNC +”, the CC50 at 24 h (in vitro [5]) was 150 µM and the half-life at 10 µM (in vitro [10]) was 16 ± 3 min. The half-life at 10 µM (in vitro [11]) was 6.4 ± 0.9 min and the EC50 [6] was 8.87 µM.

In the case of `CCn1cc(C(=O)O)c(=O)c2cc(F)c(N3CCNCC3)nc21` [Enoxacin, reference compound], the “prediction of CNS penetration” value [2] is reported as “CNS−” and the Papp (in vitro [12]) is reported as 1.2 ± 0.2 ×10⁻⁶ cm/s.

In the case of `CCN(CC)CCC(=O)Nc1ccccc1Nc1cc(Cl)ccc1[N+](=O)[O-]` [compound 18, N-(2-((5-Chloro-2-nitrophenyl)amino)phenyl)-3-(diethylamino)propanamide], the inhibition at 10 µM [7] is reported as 9%, the “SI (pEBOV) (CC50/EC50)” value [4] is reported as 19.6 and the “SI (CC50/EC50), replicative EBOV” value [1] is reported as 5.2. The EC50 [1] was 28.7 µM, the “metabolic stability in human liver microsomes CLint” value [8] was 9.1 ± 0.7 mL/min/mg protein and the “increase in metabolic stability” value [8] was 294%. The “metabolic stability in mouse liver microsomes CLint” value [9] was 180 ± 70 mL/min/mg protein, the “prediction of CNS penetration” value [2] was “SNC +” and the CC50 at 24 h (in vitro [5]) was 150 µM. For the same compound, the half-life at 10 µM (in vitro [10]) was 63 ± 5 min, the half-life at 10 µM (in vitro [11]) was 14 ± 6 min and the EC50 [6] was 7.65 µM.

In the case of `CN1C(C(=O)Nc2ccccn2)=C(O)c2ccccc2S1(=O)=O` [Piroxicam, reference compound], the “prediction of CNS penetration” value [2] is reported as “CNS−” and the Pe ([2]; pH 7.4) is reported as 1.6 ± 0.7.

For `O=C(CCN1CCCC1)Nc1ccccc1Sc1cc(Cl)ccc1[N+](=O)[O-]` [compound 12, N-(2-((5-Chloro-2-nitrophenyl)thio)phenyl)-3-(pyrrolidin-1-yl)propanamide], the inhibition at 10 µM [7] was 36%, the “SI (pEBOV) (CC50/EC50)” value [4] was 61.2 and the “EC50 (EBOV)” value [1] was “inactive”. For the same compound, the “metabolic stability in human liver microsomes CLint” value [8] was 12.5 ± 0.6 mL/min/mg protein, the “metabolic stability in mouse liver microsomes CLint” value [9] was 260 ± 80 mL/min/mg protein and the “prediction of CNS penetration” value [2] was “SNC +”. The CC50 at 24 h (in vitro [5]) was 300 µM, the half-life at 10 µM (in vitro [10]) was 46 ± 2 min and the half-life at 10 µM (in vitro [11]) was 10 ± 3 min. For the same compound, the EC50 [6] was 4.9 µM.

In the case of `O=C(CNCCC1CCN(Cc2ccccc2)CC1)Nc1ccccc1Nc1cc(Cl)ccc1[N+](=O)[O-]` [compound 16, 2-((2-(1-Benzylpiperidin-4-yl)ethyl)amino)-N-(2-((5-chloro-2-nitrophenyl)amino)phenyl)acetamide], the inhibition at 10 µM [7] is reported as -44%, the “STD-NMR competition with imipramine” value (EBOV-GP protein) is reported as “both compounds target the same binding site of EBOV-GP” and the “binding to EBOV-GP by STD-NMR” value (EBOV-GP protein) is reported as “binds to the protein”. For the same compound, the “effect on binding of EBOV-GP to NPC1 domain C (ELISA)” value [13] was “interferes with the interaction between NPC1 and EBOV-GP”, the EC50 [1] was 4.42 µM and the “metabolic stability in human liver microsomes CLint” value [8] was 12 ± 2 mL/min/mg protein. For the same compound, the “increase in metabolic stability” value [8] was 105%, the “metabolic stability in mouse liver microsomes CLint” value [9] was 310 ± 50 mL/min/mg protein and the “prediction of CNS penetration” value [2] was “SNC +”. It also gave a CC50 at 24 h (in vitro [5]) of 10 µM, a half-life at 10 µM (in vitro [10]) of 47 ± 7 min and a half-life at 10 µM (in vitro [11]) of 8 ± 1 min. It also gave an EC50 [6] of 2.43 µM.

For `O=C(CCNCCc1ccccc1)Nc1ccccc1Sc1cc(Cl)ccc1[N+](=O)[O-]` [compound 14, N-(2-((5-Chloro-2-nitrophenyl)thio)phenyl)-3-(phenethylamino)propanamide], the “antiviral activity” value [4] was “no activity”, the CC50 (in vitro [5]) was over 200 µM and the inhibition at 10 µM [6] was 23%.

For `O=C(CN1CCCC1)Nc1ccccc1Sc1cc(Cl)ccc1[N+](=O)[O-]` [compound 7, N-(2-((5-Chloro-2-nitrophenyl)thio)phenyl)-2-(pyrrolidin-1-yl)acetamide], the “antiviral activity” value [4] was “inactive”, the “EC50 (EBOV)” value [1] was “inactive” and the CC50 (in vitro [5]) was over 200 µM. The inhibition at 10 µM [6] was -2%.
